The subject of assay [1] is human low density lipoprotein (LDL). Kind of assay: LDL measurement assay (MDA formation during LDL peroxidation). It is filed as biochemical. The procedure: (§1) The biological activities (e.g., antioxidative activities) of tetrapyrrole compounds described above can be evaluated by a number of assays. For example, an antioxidative activity of a test compound is evaluated by determining the compound's ability to inhibit the formation of conjugated diene during […] linoleic acid peroxidation (Wallin et al (1993) Anal. Biochem. 208: 10-15), or to inhibit the formation of malonyldialdhyde (MDA) during human low density lipoprotein (LDL) peroxidation (Yagi (1982) In lipid peroxides in Biology and Medicine. Yagi, K. (ed), pp. 223-242, Academic Press, New York). In another example, an antioxidative activity of a test compound is evaluated by determining the compound's ability to scavenge the free radicals of ? -diphenyl- ? -picrylhydrazyl (DPPH), or to scavenge superoxide anion, or to chelate Fe2+ cation, or to reduce power. See, e.g., Shimada et aL (1992) J. Agric. Food. Chem. 40: 945-948; Robak & Gryglewski (1988) Biochem. Pharma. 37: 837-841; Dinis et aL (1994) Arch Biochem Biophys 315: 161-169; and Oyaizu (1986) Nippon Shokuhin Kogyo Gakkaishi 35: 771-775.
Under a linoleic acid emulsion assay (see, e.g., Mitsuda et al. Eiyo Shokuryo (1966) 19:210-0.214 and Wallin et al. Anal. Biochem. (1993) 208:10-15), various degrees of inhibition of conjugated diene formation were observed during lipid peroxidation. In addition to Compounds 1-6, chlorophylls a and b were also tested. […] Further, compounds chelated with Mg, e.g., Compounds 1 and 2, had stronger antioxidative property than those without chelation, e.g., Compounds 3 and 4.

A short description of the next assay: DPPH scavenging assay. It counts as physicochemical. Particulars: DPPH free radical. How it is done:
as §1
The compounds were also tested in four other assays, i.e., DPPH scavenging assay, superoxide anion scavenging assay, Fe^2+ chelation assay, and reduction assay. See Shimada et al. J. Agric. Food Chem. (1992) 40:945-948; Robak et al. Biochem. Pharnia. (1988) 37:837-841; Dinis et al. Arch. Biochem. Biophys. (1994) 315:161-169; and Oyaizu et al. Nippon Shokuhin Kogyo Gakkaishi (1986) 35:771-775. Compounds 3 and 4 were stronger scavengers than Compounds 5 and 6 in removing DPPH, which in turn were stronger scavengers than chlorophylls a and b and Compounds 1 and 2. […] The I50 values as to chelating Fe^2+ were lower than those as to scavenging DPPH free radical.

Assay [2] can be described thus: superoxide anion scavenging assay. It counts as physicochemical. Particulars: increasing concentrations. The procedure:
as §1
The compounds were also tested in four other assays, i.e., DPPH scavenging assay, superoxide anion scavenging assay, Fe^2+ chelation assay, and reduction assay. See Shimada et al. J. Agric. Food Chem. (1992) 40:945-948; Robak et al. Biochem. Pharnia. […]

On to `C=Cc1c(C)c2cc3nc(c4c5[nH]c(cc6nc(cc1[nH]2)C(C)=C6CC)c(C)c5C(=O)[C@@H]4C(=O)OC)[C@@H](CCC(=O)O)[C@@H]3C` [Compound 1], for which the results for the IC50 (in assay [1]; in “DPPH scavenging assay”) were 10 µM and more than 700 µM, respectively.
For `C=Cc1c(C)c2cc3nc(c4c5[nH]c(cc6nc(cc1[nH]2)C(C=O)=C6CC)c(C)c5C(=O)[C@@H]4C(=O)OC)[C@@H](CCC(=O)O)[C@@H]3C` [Compound 2] the same measures were 42 µM and approximately 535 µM.
For `C=Cc1c(C)c2cc3nc(c4c5[nH]c(cc6nc(cc1[nH]2)C(C)=C6CC)c(C)c5C(=O)[C@@H]4C(=O)OC)[C@@H](CCC(=O)O)[C@@H]3C` [Compound 3], the IC50 (as a rule, the concentration at which inhibition is half-maximal) is 21 µM in assay [1] and approximately 40 µM in “DPPH scavenging assay”.
As for `C=Cc1c(C)c2cc3nc(c4c5[nH]c(cc6nc(cc1[nH]2)C(C=O)=C6CC)c(C)c5C(=O)[C@@H]4C(=O)OC)[C@@H](CCC(=O)O)[C@@H]3C` [Compound 4], the values for the IC50 (in assay [1]; in “DPPH scavenging assay”) were 20 µM and approximately 28 µM, respectively.
Regarding `C=Cc1c(C)c2cc3nc(c4c5[nH]c(cc6nc(cc1[nH]2)C(C)=C6CC)c(C)c5C(=O)C4C(=O)OC)C(CCC(=O)OCC=C(C)CCCC(C)CCCC(C)CCCC(C)C)C3C` (stereo not shown) [Compound 5], the concentration for half-maximal inhibition (IC50) was 17 µM in assay [1] and approximately 160 µM in the assay “DPPH scavenging assay”. Besides, the “superoxide anion scavenging ability as concentration increased” value in assay [2] was “a gradual increase and a subsequent plateau in their scavenging ability”.
Take `C=Cc1c(C)c2cc3nc(c4c5[nH]c(cc6nc(cc1[nH]2)C(C=O)=C6CC)c(C)c5C(=O)C4C(=O)OC)C(CCC(=O)OCC=C(C)CCCC(C)CCCC(C)CCCC(C)C)C3C` (stereo not shown) [Compound 6]: the IC50 in assay [1] is 54 µM; in the assay “DPPH scavenging assay”, approximately 120 µM. Further, in assay [2], the “superoxide anion scavenging ability as concentration increased” value was “a gradual increase and a subsequent plateau in their scavenging ability”.
`Cc1c(C)c2c(c(C)c1O)CCC(C)(C(=O)O)O2` (stereo not shown) [Trolox, reference compound]: in assay [1], the IC50 is approximately 16 µM.
Turning to `C=Cc1c(C)c2cc3nc(c4c5[nH]c(cc6nc(cc1[nH]2)C(C)=C6CC)c(C)c5C(=O)[C@@H]4C(=O)OC)[C@@H](CCC(=O)OC/C=C(\C)CCC[C@H](C)CCC[C@H](C)CCCC(C)C)[C@@H]3C` [chlorophyll a, reference compound], the IC50 in assay [1] was 5 µM; in “DPPH scavenging assay”, approximately 265 µM.
With `C=Cc1c(C)c2cc3nc(c4c5[nH]c(cc6nc(cc1[nH]2)C(C=O)=C6CC)c(C)c5C(=O)[C@@H]4C(=O)OC)[C@@H](CCC(=O)OC/C=C(\C)CCC[C@H](C)CCC[C@H](C)CCCC(C)C)[C@@H]3C` [chlorophyll b, reference compound], the half-maximal inhibitory concentration (IC50) in assay [1] was 26 µM; in “DPPH scavenging assay”, approximately 200 µM.
